Results on four compounds are retold here after patent US8906952B2, “Indole derivative or pharmaceutically acceptable salt thereof, preparation method thereof, and pharmaceutical composition for preventing or treating metabolic diseases containing same as active ingredient” (Korea Research Institute of Bioscience and Biotechnology, priority 2011, dated 2014).

Like-named read-outs stand apart in the source and are kept apart here.

What all share (format): biochemical
One experiment addresses T1, human DGAT1 (Homo sapiens, UniProt O75907).
T1 construct: made in house; host or cells: sf9 insect cells
T1 sequence (O75907 1-488): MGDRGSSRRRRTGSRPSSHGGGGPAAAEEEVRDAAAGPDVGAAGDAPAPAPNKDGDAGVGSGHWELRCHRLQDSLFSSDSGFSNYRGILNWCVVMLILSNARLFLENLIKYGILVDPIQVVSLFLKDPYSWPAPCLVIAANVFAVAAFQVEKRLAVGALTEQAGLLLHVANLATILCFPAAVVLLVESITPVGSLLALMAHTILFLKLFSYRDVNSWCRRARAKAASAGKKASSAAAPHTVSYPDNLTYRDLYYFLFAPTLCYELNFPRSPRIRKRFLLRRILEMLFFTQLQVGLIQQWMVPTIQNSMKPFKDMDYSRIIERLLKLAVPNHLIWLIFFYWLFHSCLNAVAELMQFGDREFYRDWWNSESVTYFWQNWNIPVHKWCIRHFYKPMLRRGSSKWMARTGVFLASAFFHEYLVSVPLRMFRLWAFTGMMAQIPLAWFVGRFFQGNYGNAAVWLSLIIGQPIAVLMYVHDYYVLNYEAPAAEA
The experiment can be described thus: DGAT enzyme inhibition test, hDGAT1 enzyme from sf9 insect cells. Conditions: enzyme from sf9 cells overexpressing hDGAT1; read-out: hDGAT-1 (sf9) IC50. The gist of the method: (§1)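 Microsomes (100–200 μg) from sf9 cells overexpressing the human enzyme were incubated 10 min at 25 °C with compound in 175 mM Tris-HCl pH 8.0, 100 mM MgCl2, BSA, 30 μM [14C]palmitoyl-CoA and 200 μM 1,2-dioleoylglycerol. Extracted [14C]triacylglycerol was counted by LSC. Inhibition was calculated from treated, untreated and no-enzyme counts.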

The target of the next experiment is T2, human DGAT2 (Homo sapiens, UniProt Q96PD7).
T2 construct: made in house; host or cells: sf9 insect cells
T2 sequence (Q96PD7 1-388): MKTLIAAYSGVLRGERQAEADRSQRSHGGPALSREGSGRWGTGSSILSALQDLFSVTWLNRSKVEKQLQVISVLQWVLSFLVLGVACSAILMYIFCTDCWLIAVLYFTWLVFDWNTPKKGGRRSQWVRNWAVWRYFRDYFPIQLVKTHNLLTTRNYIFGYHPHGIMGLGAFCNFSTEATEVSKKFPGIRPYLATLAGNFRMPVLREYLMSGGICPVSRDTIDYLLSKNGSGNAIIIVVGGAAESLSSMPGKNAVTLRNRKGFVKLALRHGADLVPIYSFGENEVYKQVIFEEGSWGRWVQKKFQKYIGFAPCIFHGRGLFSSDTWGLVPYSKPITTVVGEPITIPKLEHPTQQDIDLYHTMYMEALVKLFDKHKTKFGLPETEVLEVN
The experiment in a line: DGAT enzyme inhibition test, hDGAT2 enzyme from sf9 insect cells (DGAT2 selectivity). The method, boiled down: as §1

The next experiment deals with T3, DGAT-1 (rat liver) (Rattus norvegicus, UniProt Q9ERM3).
T3 construct: microsomal protein isolated from rat; from tissue; host or cells: rat liver microsomes
T3 sequence (Q9ERM3 1-498): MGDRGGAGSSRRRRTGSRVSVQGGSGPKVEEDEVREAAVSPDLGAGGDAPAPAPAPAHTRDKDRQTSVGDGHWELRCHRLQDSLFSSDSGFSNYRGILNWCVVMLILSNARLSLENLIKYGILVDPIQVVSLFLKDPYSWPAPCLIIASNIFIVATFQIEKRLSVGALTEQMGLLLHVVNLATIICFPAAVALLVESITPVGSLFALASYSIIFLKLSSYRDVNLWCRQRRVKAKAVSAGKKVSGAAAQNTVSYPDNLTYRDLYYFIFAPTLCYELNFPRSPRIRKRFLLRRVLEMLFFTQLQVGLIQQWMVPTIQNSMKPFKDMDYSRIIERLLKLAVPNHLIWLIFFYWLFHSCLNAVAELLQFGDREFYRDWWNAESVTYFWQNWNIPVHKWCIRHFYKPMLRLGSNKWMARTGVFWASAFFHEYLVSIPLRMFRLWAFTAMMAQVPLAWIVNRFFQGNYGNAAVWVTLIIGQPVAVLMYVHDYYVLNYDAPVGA
The experiment in a line: DGAT enzyme inhibition test, rat liver-derived DGAT enzyme. The conditions noted are these: rat liver microsomal protein. From the text: To investigate inhibitory effect of the compounds of Examples 1-33 against DGAT enzyme activity, DGAT enzyme inhibition and DGAT2 selectivity were investigated using zymogen including:
3) rat liver-derived DGAT enzyme.
To be specific, for the purpose of measuring human-derived DGAT enzyme inhibitory activity, using the zymogen, including enzymes derived from insect cell overexpressing human DGAT1 and DGAT2 (‘sf9’), microsomal protein isolated from human duodenal adenocarcinoma (‘Hutu 80’), and microsomal protein isolated from rat, and according to Coleman et al., (Methods Enzymol., 98-103, 1992), and substrate including 1,2-diacylglycerol(Sigma, D0138) and [^14C]palmitoyl-CoA (Amersham, CFA583), the amount of radiation of [^14C]triacylglycerol produced after enzymatic reaction was measured.
To be more specific, to the reaction solution containing 175 mM Tris-HCl (pH 8.0), 20 μl bovine serum albumin (10 mg/ml), 100 mM magnesium chloride, 30 μM [^14C]palmitoyl CoA (0.02 μCi, Amersham) and 200 μM 1,2-dioleoylglycerol, reagent dissolved in dimethylsulfoxide (10.0 μl) was added. After introducing 100 to 200 μg isolated microsomal protein and allowing the same to react at 25° C. for 10 min, the reaction was stopped by adding 1.5 ml stop solution (2-propanol:heptane:water=80:20:2, v:v:v). To isolate the product of the reaction (i.e., [^14C]triacylglycerol), 1 ml heptane and 0.5 ml distilled water were added and then decocted. After taking 1 ml supernatant, 2 ml alkaline ethanol solution (ethanol:0.5 N sodium hydroxide:water=50:10:40, v:v:v) were added and then decocted. After taking 0.65 ml supernatant from the decoction, the amount of radiation was measured with liquid scintillation counter (LSC). The DGAT inhibitory activity was calculated with Mathematical Expression 1 below:
T denotes cpm of experimental group in which the enzymatic reaction solution was treated with the sample,
C denotes cpm of control group in which the enzymatic reaction solution was not treated with the sample, and
B denotes cpm of control group treated with the sample without zymogen.

The mark [1] stands for this setting: 10 μM, enzyme from sf9 cells overexpressing hDGAT2, read-out: hDGAT-2 (sf9) inhibition rate(%)at 10 μM.
Setting [2] is: concentration of 10 μM, read-out: hDGAT2 inhibition.

Regarding `CC(C)N(NC(=O)c1cccc(OCC(N)=O)c1)C(=O)/C=C/c1cn(C(=O)OC(C)(C)C)c2ccccc12` [Example 20, (E)-tert-butyl 3-(3-(2-(3-(2-amino-2-oxoethoxy)benzoyl)-1-isopropylhydrazinyl)-3-oxoprop-1-enyl)-1H-indole-1-carboxylate], the IC50 on human DGAT1 and against DGAT-1 (rat liver) was above 100 µM throughout. The inhibition at 10 µM on human DGAT2 (setting [1]) was below 0%.
Turning to `CC(C)N(NC(=O)c1ccccc1)C(=O)/C=C/c1cn(C(=O)C(C)(C)C)c2ccccc12` [Example 31, (E)-N′-isopropyl-N′-(3-(1-pivaloyl-1H-indol-3-yl)acryloyl)benzohydrazide], the half-inhibitory concentration (IC50) at human DGAT1 amounted to 9.3 µM; at DGAT-1 (rat liver), 3.4 µM. Further, the results for the inhibition at 10 µM at human DGAT2 (setting [1]) and at human DGAT2 (setting [2]) were 4.4% and below 11%, respectively.
The matching figures for `COCCOc1cccc(C(=O)NN(C(=O)/C=C/c2cn(C(=O)OC(C)(C)C)c3ccccc23)C(C)C)c1` [Example 10, (E)-tert-butyl 3-(3-(1-isopropyl-2-(3-(2-methoxyethoxy)benzoyl)hydrazinyl)-3-oxoprop-1-enyl)-1H-indole-1-carboxylate]: 36.4 µM, 2.6 µM, 8.3% and below 11%.
Turning to `COc1ccc(C(=O)NN(C(=O)/C=C/c2cn(C(=O)OC(C)(C)C)c3ccccc23)C(C)C)cc1` [Example 7, (E)-tert-butyl 3-(3-(1-isopropyl-2-(4-methoxybenzoyl)hydrazinyl)-3-oxoprop-1-enyl)-1H-indole-1-carboxylate], the IC50 was above 100 µM on human DGAT1 and 8.7 µM at DGAT-1 (rat liver). The inhibition at 10 µM at human DGAT2 (setting [1]) was below 0%.
